Data as given in publication PMC6010128, “Structure–activity relationship investigation of tertiary amine derivatives of cinnamic acid as acetylcholinesterase and butyrylcholinesterase inhibitors: compared with that of phenylpropionic acid, sorbic acid and hexanoic acid” (Journal of Enzyme Inhibition and Medicinal Chemistry, 2018).
Where two headings read alike, the source gives them in different places.

Legend:
[1] = molecular target: BChE (Rattus norvegicus, UniProt Q9JKC1); assay: biochemical; design: species or system Sprague–Dawley rat
Chain of BChE (Q9JKC1 24-597): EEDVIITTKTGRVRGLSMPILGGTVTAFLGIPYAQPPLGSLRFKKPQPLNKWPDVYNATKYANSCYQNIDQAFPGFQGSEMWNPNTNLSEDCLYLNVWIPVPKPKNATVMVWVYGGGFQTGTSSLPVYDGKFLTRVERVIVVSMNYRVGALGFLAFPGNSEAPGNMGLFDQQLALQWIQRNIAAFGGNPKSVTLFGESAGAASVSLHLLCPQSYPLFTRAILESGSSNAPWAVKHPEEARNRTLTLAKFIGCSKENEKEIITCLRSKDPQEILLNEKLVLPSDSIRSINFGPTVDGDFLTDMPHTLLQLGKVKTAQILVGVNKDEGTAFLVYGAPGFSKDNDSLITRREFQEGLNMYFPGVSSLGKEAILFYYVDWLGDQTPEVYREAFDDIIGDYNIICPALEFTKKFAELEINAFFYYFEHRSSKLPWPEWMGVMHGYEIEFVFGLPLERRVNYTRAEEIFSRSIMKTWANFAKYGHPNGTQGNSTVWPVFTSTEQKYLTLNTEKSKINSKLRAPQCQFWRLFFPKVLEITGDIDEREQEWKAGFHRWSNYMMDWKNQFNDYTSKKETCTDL

[2] = pKa by pH-titration method; assay type: physicochemical
Experimental: pKa is determined by pH-titration method according to the report. The titration curve E vs. VT was recorded and pKa value was calculated.

[3] = molecular target: AChE (Rattus norvegicus, UniProt P37136); assay: biochemical
Chain of AChE (P37136 32-614): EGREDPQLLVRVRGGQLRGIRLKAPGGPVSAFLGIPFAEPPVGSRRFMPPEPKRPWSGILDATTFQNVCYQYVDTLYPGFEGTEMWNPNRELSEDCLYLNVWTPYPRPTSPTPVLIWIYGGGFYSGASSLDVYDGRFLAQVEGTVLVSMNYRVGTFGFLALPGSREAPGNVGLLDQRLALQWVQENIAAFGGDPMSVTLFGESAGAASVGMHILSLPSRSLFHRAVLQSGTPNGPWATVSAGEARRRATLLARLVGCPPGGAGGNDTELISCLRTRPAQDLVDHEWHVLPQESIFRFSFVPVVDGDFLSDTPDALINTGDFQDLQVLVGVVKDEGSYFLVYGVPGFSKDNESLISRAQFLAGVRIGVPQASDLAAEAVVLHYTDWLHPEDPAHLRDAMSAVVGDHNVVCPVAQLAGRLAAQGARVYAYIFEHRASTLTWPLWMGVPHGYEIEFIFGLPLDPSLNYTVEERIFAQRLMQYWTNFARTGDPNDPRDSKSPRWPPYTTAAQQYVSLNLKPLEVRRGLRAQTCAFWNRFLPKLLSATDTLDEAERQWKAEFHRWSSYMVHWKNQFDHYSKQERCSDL

[4] = Log P by shake flask method; assay type: physicochemical; settings: octanol / PBS pH = 7.4, shake flask
Experimental: Log P is defined as the logarithm of octanol–water partition coefficient. […] Ultraviolet spectrophotometry was applied to determine the concentration of compounds. Log p values were calculated based on the data in triplicate.

[5] = rat serum BChE, Mean ± SD, triplicate
[6] = rat brain AChE, Mean ± SD, triplicate

SMILES	IC50 [1, 5] [µM]	pKa ([2]; read-out: pKa)	IC50 [3, 6] [µM]	logP [4]	Selectivity for AChE ([3]; IC50 (BChE)/IC50 (AChE))	IC50 [1] [µM]	pKa [2]	IC50 [3] [µM]	Selectivity for AChE [3]	Log P [4]
C/C=C/C=C/C(=O)Nc1ccccc1OCCN(CC)CC [Compound 16e]	91.8 ± 1.45	7.53	> 500	2.18	–	–	–	–	–	–
CCCCCC(=O)Nc1cccc(OCCN2CCCCC2)c1 [Compound 23f]	0.22 ± 0.02	7.32	76.7 ± 3.17	1.55	0.002	–	–	–	–	–
C/C=C/C=C/C(=O)Nc1cccc(OCCN(C)C)c1 [Compound 17d]	50.43 ± 0.46	7.23	52.47 ± 0.39	0.99	0.96	–	–	–	–	–
CN(C)CCOc1ccccc1NC(=O)C=Cc1ccccc1 [Compound 4d]	11.2 ± 0.34	6.96	161 ± 2.19	2.78	0.07	–	–	–	–	–
O=C(CCc1ccccc1)Nc1cccc(OCCN2CCCC2)c1 [Compound 11g]	84 ± 2.12	6.45	58.6 ± 3.85	2.58	1.43	–	–	–	–	–
CCCCCC(=O)Nc1cccc(OCCN2CCCC2)c1 [Compound 23g]	0.34 ± 0.01	7.69	50.7 ± 2.66	1.37	0.01	–	–	–	–	–
O=C(C=Cc1ccccc1)Nc1cccc(OCCN2CCCC2)c1 [Compound 5g]	12.9 ± 1.18	7.28	8.52 ± 1.23	2.28	1.51	–	–	–	–	–
C/C=C/C=C/C(=O)Nc1ccc(OCCN(C)C)cc1 [Compound 18d]	222 ± 8.63	7.21	12.6 ± 0.89	1.79	17.5	–	–	–	–	–
CCCCCC(=O)Nc1ccc(OCCN2CCCC2)cc1 [Compound 24g]	13.9 ± 1.66	6.92	16.9 ± 0.91	0.16	0.82	–	–	–	–	–
C/C=C/C=C/C(=O)Nc1ccccc1OCCN(C)C [Compound 16d]	34.1 ± 1.85	7.25	30.7 ± 2.34	0.63	1.11	–	–	–	–	–
CCCCCC(=O)Nc1ccccc1OCCN1CCCC1 [Compound 22g]	18.6 ± 0.32	7.16	> 500	1.11	<0.04	–	–	–	–	–
CN(C)CCOc1ccccc1NC(=O)CCc1ccccc1 [Compound 10d]	36.6 ± 1.38	7.19	285 ± 4.69	2.14	0.13	–	–	–	–	–
O=C(C=Cc1ccccc1)Nc1ccc(OCCN2CCCCC2)cc1 [Compound 6f]	94.5 ± 8.74	7.29	4.35 ± 0.36	1.4	–	–	–	–	–	–
C/C=C/C=C/C(=O)Nc1ccc(OCCN(CC)CC)cc1 [Compound 18e]	94.5 ± 4.26	7.16	189 ± 4.55	1.31	0.50	–	–	–	–	–
O=C(CCc1ccccc1)Nc1cccc(OCCN2CCCCC2)c1 [Compound 11f]	64 ± 1.92	6.78	69 ± 2.64	3.22	0.93	–	–	–	–	–
CCCCCC(=O)Nc1ccccc1OCCN(C)C [Compound 22d]	–	–	–	–	–	26.6 ± 1.36	7.32	186 ± 8.22	0.14	1.23
C/C=C/C=C/C(=O)Nc1ccccc1OCCN1CCCCC1 [Compound 16f]	27.7 ± 1.29	6.86	170 ± 4.11	0.67	0.16	–	–	–	–	–
CN(C)CCOc1ccc(NC(=O)CCc2ccccc2)cc1 [Compound 12d]	132 ± 5.21	7.26	46.8 ± 1.29	2.44	2.82	–	–	–	–	–

SMILES	IC50 [1, 5] [µM]	pKa ([2]; read-out: pKa)	IC50 [3, 6] [µM]	logP [4]	Selectivity for AChE ([3]; IC50 (BChE)/IC50 (AChE))	IC50 [1] [µM]	pKa [2]	IC50 [3] [µM]	Selectivity for AChE [3]	Log P [4]
C/C=C/C=C/C(=O)Nc1cccc(OCCN(CC)CC)c1 [Compound 17e]	79.5 ± 1.43	7.58	98.7 ± 1.89	1.72	0.81	–	–	–	–	–
CCN(CC)CCOc1ccccc1NC(=O)CCc1ccccc1 [Compound 10e]	40.1 ± 1.29	7.23	> 500	3.22	–	–	–	–	–	–
CCCCCC(=O)Nc1ccc(OCCN(C)C)cc1 [Compound 24d]	33.8 ± 4.21	7.16	41.7 ± 2.89	0.72	0.81	–	–	–	–	–
C/C=C/C=C/C(=O)Nc1ccccc1OCCN1CCCC1 [Compound 16g]	21.9 ± 0.99	7.32	278 ± 4.58	0.97	0.08	–	–	–	–	–
O=C(C=Cc1ccccc1)Nc1cccc(OCCN2CCCCC2)c1 [Compound 5f]	3.26 ± 0.26	6.99	20.5 ± 1.01	1.24	0.16	–	–	–	–	–
O=C(CCc1ccccc1)Nc1ccccc1OCCN1CCCC1 [Compound 10g]	1.87 ± 0.16	6.88	209 ± 2.33	1.3	0.01	–	–	–	–	–
O=C(C=Cc1ccccc1)Nc1ccccc1OCCN1CCCC1 [Compound 4g]	1.56 ± 0.42	7.33	170 ± 8.49	2.19	0.01	–	–	–	–	–
O=C(CCc1ccccc1)Nc1ccc(OCCN2CCCCC2)cc1 [Compound 12f]	226 ± 5.78	7.13	34.3 ± 0.89	1.82	6.60	–	–	–	–	–
C/C=C/C=C/C(=O)Nc1ccc(OCCN2CCCCC2)cc1 [Compound 18f]	271 ± 4.56	7.06	12.3 ± 0.76	1.61	22.1	–	–	–	–	–
CCCCCC(=O)Nc1ccccc1OCCN1CCCCC1 [Compound 22f]	9.04 ± 0.27	6.99	325 ± 7.65	1.11	0.03	–	–	–	–	–
CCN(CC)CCOc1cccc(NC(=O)C=Cc2ccccc2)c1 [Compound 5e]	42.5 ± 0.67	7.16	49.4 ± 1.91	2.56	0.86	–	–	–	–	–
CN(C)CCOc1cccc(NC(=O)CCc2ccccc2)c1 [Compound 11d]	15.5 ± 1.21	6.45	59.2 ± 3.34	1.19	0.26	–	–	–	–	–
O=C(C=Cc1ccccc1)Nc1ccccc1OCCN1CCCCC1 [Compound 4f]	1.16 ± 0.22	6.85	141 ± 7.01	2.17	0.01	–	–	–	–	–
CCCCCC(=O)Nc1ccc(OCCN(CC)CC)cc1 [Compound 24e]	9.9 ± 1.28	7.48	> 500	1.1	<0.02	–	–	–	–	–
CN(C)CCOc1cccc(NC(=O)C=Cc2ccccc2)c1 [Compound 5d]	26.5 ± 0.56	6.51	20.5 ± 3.13	0.96	1.30	–	–	–	–	–
CCN(CC)CCOc1ccc(NC(=O)C=Cc2ccccc2)cc1 [Compound 6e]	44 ± 3.29	6.97	10.6 ± 0.43	1.22	4.16	–	–	–	–	–
CN(C)CCOc1ccc(NC(=O)C=Cc2ccccc2)cc1 [Compound 6d]	113 ± 1.36	7.18	4.98 ± 0.31	1.54	22.8	–	–	–	–	–
CCN(C)C(=O)Oc1cccc([C@H](C)N(C)C)c1 [Rivastigmine, reference compound]	–	5.93	–	1.68	–	–	–	–	–	–
